Data: US20250000991A1, “NECTIN-4 ANTIBODIES AND ANTIBODY-DRUG CONJUGATES” (Eli Lilly and Company, priority 2023, published 2025)
Square brackets hold non-standard residues; d marks the D form. Peptide text beside a SMILES is read from it. * marks the point of attachment. Dolaproine = CO[C@@H]([C@@H]1CCCN1)[C@@H](C)C(=O)O; Dil = CC[C@H](C)[C@H](NC)[C@@H](CC(=O)O)OC; X1 = C[C@@H](N*)[C@@H](O)c1ccccc1; NMeV = CN[C@H](C(=O)O)C(C)C

Experiments:
[1] = tested on: UMUC3-Luc-GFP + UMUC3-hNectin4 clone F7; assay: Bystander killing of UMUC3-Luc-GFP cells co-cultured with UMUC3-hNectin4 clone F7 (ONE-Glo); assay type: cell-based, human
Description: UMUC3 cell line was engineered to express human Nectin4 and two clonal populations with different levels of expression were selected. In flat white clear-bottom 96-well plates, UMUC3-hNectin4 clone F7/UMUC3-Luc-GFP cells were mixed and seeded at a total of 1500 cells/well/100 ul with a ratio of 4:1 in assay medium (MEM+1× GlutaMax+10% Heat Inactivated Fetal Bovine Serum+1 mM sodium pyruvate). UMUC3-hNectin4 clone E3/UMUC3-Luc-GFP cells were mixed and seeded at a total of 2100 cells/well/100 ul with a ratio of 6:1 in assay medium. UMUC3-Luc-GFP cells were negative for nectin-4 expression. Plates were incubated at 37° C. with 5% CO2 overnight. […] Plates were read after 5-days treatment using ONE-GloTM Luciferase Assay System. […] Luminescence was read in the SpectraMax M5e. […] Percentage of UMUC3-Luc-GFP killing was calculated against no treatment as 0%. Data was graphed and analyzed using Graphpad Prism version 9.5.1. IC50 was determined via log(inhibitor) vs. response (three parameters) curve fitting for bystander activity and log(inhibitor) vs. response (four parameters) for free payload cytotoxicity. […] In experiments run as essentially described herein, the bystander effects of four nectin-4 ADCs described herein and enfortumab vedotin were evaluated using the UMUC3-hNectin-4 cloneF7/UMUC3-Luciferase-GFP cell pair. […]

[2] = tested on: T24-hNectin-4 clone 14 cells (MMAE-resistant); assay: ADC cytotoxicity in MMAE-resistant cells (CellTiter-Glo); assay type: cell-based, human; conditions: T24-hNectin-4 clone 14, 5 days
Description: In T24 nectin-4 cells that are resistant to MMAE, two nectin-4 ADCs described herein and enfortumab vedotin were tested for activity. T24-hNectin-4 clone 14 cells were seeded at 500 per well in 100 ul culture medium, in white clear-bottom 96-well tissue culture plates and incubated at 37° C. with 5% CO2 overnight. The next day each ADC was serially diluted 1:4, with a starting concentration of 400 nM, in culture medium. One-hundred ul of each ADC dilution was added per well and the plates were covered with a Breathe-Easy® sealing membrane and incubated at 37° C. with 5% CO2. After 5 days of treatment, the plates were removed from the incubator, placed at room temperature for 15 minutes, and 100 ul medium per well was removed. One hundred ul of CellTiter-Glo reagent was added per well and the plates were incubated at room temperature for 10 minutes. RLUs (Relative Light Units) were obtained by SpectraMax M5e with SoftMax Pro 5.4. Percentage of cell killing was calculated against DMSO only (for free payloads) or no treatment (for ADCs) as 0%. Data was graphed and analyzed using Graphpad Prism version 9.5.1. IC50s were determined via log(inhibitor) vs. response-variable slope (four parameters) curve fitting.

[3] = tested on: UMUC3-Luc-GFP + UMUC3-hNectin4 clone E3; assay: Bystander killing of UMUC3-Luc-GFP cells co-cultured with UMUC3-hNectin4 clone E3 (ONE-Glo); assay type: cell-based, human; conditions: UMUC3-Luc-GFP + UMUC3-hNectin4 clone E3, ratio 6:1, 5 days; read-out: IC50 of bystander effect
Description: (§1) UMUC3 cell line was engineered to express human Nectin4 and two clonal populations with different levels of expression were selected. In flat white clear-bottom 96-well plates, UMUC3-hNectin4 clone F7/UMUC3-Luc-GFP cells were mixed and seeded at a total of 1500 cells/well/100 ul with a ratio of 4:1 in assay medium (MEM+1× GlutaMax+10% Heat Inactivated Fetal Bovine Serum+1 mM sodium pyruvate). UMUC3-hNectin4 clone E3/UMUC3-Luc-GFP cells were mixed and seeded at a total of 2100 cells/well/100 ul with a ratio of 6:1 in assay medium. UMUC3-Luc-GFP cells were negative for nectin-4 expression. Plates were incubated at 37° C. with 5% CO2 overnight. Next day, ADCs were added at final working concentration from 100 nM, 1:3 serially diluted in assay medium. To assess sensitivity of cell line to free payload, free payloads were added at final working concentration from 200 nM, 1:3 serially diluted in assay medium. […] Plates were read after 5-days treatment using ONE-Glo™ Luciferase Assay System. […] Luminescence was read in the SpectraMax M5e. […] Percentage of UMUC3-Luc-GFP killing was calculated against no treatment as 0%. Data was graphed and analyzed using Graphpad Prism version 9.5.1. IC50 was determined via log(inhibitor) vs. response (three parameters) curve fitting for bystander activity and log(inhibitor) vs. response (four parameters) for free payload cytotoxicity.

[4] = tested on: UM-UC-3 Nectin4 clone F7 xenograft; assay: Tumor xenograft, high nectin-4 expression; assay type: in vivo, mice (nu/nu); conditions: UMUC3 Nectin-4 clone F7 xenograft, single dose 2 mg/kg, day 40
Description: In order to test the efficacy of the nectin-4 ADCs of the present disclosure, which have effector null mutations in the Fc region, and to compare to the enfortumab antibody, which has wildtype Fc and in an ADC with the same payload background as the ones of this disclosure, two tumor xenograft models with either high or moderate nectin-4 expression were tested as described. Immune compromised female mice (nu/nu) between 5-8 weeks of age with weight 18-20 grams were implanted unilaterally on the right flank with UM-UC-3 Nectin4 clone F7 cells with high nectin-4 expression. […] The test articles were given at a single dose (2 mg/kg) formulated with 5% dextrose. Tumors were measured biweekly until Day 40.

MDA-MB-468 xenograft = assay: Tumor xenograft, moderate nectin-4 expression; assay type: in vivo, NSG mice; conditions: MDAMB468 xenograft, single dose 2 mg/kg, day 71
Description: In a separate study, female NSG mice between 5-6 weeks of age were injected subcutaneously with MDA-MB-468 cells with moderate Nectin-4 expression. When tumors reached approximately 150-250 mm^3; animals were matched by tumor volume into treatment or control groups and dosing initiated (Day 0, n=8 per group). The test articles were given at a single dose (2 mg/kg) formulated with 5% Dextrose. Tumors were measured biweekly until Day 71.
In both models, a 2 mg/kg single dose treatment of either the nectin-4 ADCs (exemplified herein with each of Abs1-8 conjugated as in Formula XI, and with a DAR of 8) or benchmark enfortumab ADC (enfortumab conjugated with Formula XI, and with a DAR of 8) was used. Tumor growth was measured at day 40 for UMUC3 Nectin-4 clone F7 and day 71 for MDAMB468 xenografts.

[5] = tested on: UMUC3-Luc-GFP Nectin-4 negative cells; assay: Free payload cytotoxicity on UMUC3-Luc-GFP cells; assay type: cell-based; conditions: 5 days
Description: as §1

[6] = tested on: HEKα cells (normal human epidermal keratinocytes); assay: Binding to normal human epidermal keratinocytes by flow cytometry; conditions: ADC (Formula XI, DAR of 8); read-out: EC50 of cell surface binding to normal human epidermal keratinocytes
Description: To characterize binding of nectin-4 antibodies and ADCs of the present disclosure to normal human epidermal keratinocytes, HEKα cells were plated in 150×25 mm tissue culture dish (Corning Inc.) in complete culture medium (Dermal Cell Basal Medium+Keratinocytes Growth Kit, ATCC) at 1 million per well to achieve confluency within 24 hours. The differentiation process progressed for an additional 5-10 days. Following the induction of differentiation, cells were dissociated with 2 mg/mL Type XI Collagenase from Clostridium histolyticum (Sigma-Aldrich) at 37° C. Cells were counted and aliquoted to a V-bottom polypropylene 96-well plate (Thermo Scientific Nunc) at 10^5 cells/well. Antibodies and ADCs were added to cells starting at 300 nM, 1:4 serially diluted in assay buffer (1×DPBS containing 2% FBS, Gibco). Cells were incubated on a microplate shaker at 4° C., protected from light for 1 hour. After incubation, cells were washed twice with 200 uL/well of assay buffer and stained with Alexa Fluor 647-conjugated AffiniPure F(ab')2 Fragment Goat Anti-Human IgG (H+L) (Jackson ImmunoResearch) at 1:1,000 dilution. Following an hour incubation at 4° C., cells were washed twice with 200 uL/well of assay buffer and stained with Zombie Green fixable viability dye (BioLegend) at 1:2,000 dilution. Cells were incubated on a microplate shaker at 4° C. for 20 minutes. […]

[7] = tested on: T24-human Nectin-4-eGFP clone 3 cells; assay: Internalization: degradation of nectin-4-eGFP signal by fluorescence imaging; assay type: cell-based; conditions: ADC (Formula XI, DAR of 8), 24 h time course
Description: T24 cell line was engineered to express human Nectin-4-eGFP and clonally selected for high expression. […] human Nectin-4-eGFP clone 3 cells were plated at 12,000 cells per well, in black clear-bottom CellCarrier Ultra 384-well microplates (Perkin Elmer) in complete culture medium (McCoy's 5A, modified, +10% FBS+Glutamax+400 μg/mL G418+Pen/Strep). Plates were covered with AeraSeal™ Sealing Films and incubated overnight at 37° C., 5% CO2. Next day, antibodies and ADCs were added to cells, starting at 300 nM at 1:3 dilution. Plates were covered with AeraSeal™ and placed in incubator for imaging on PerkinElmer Opera Phenix Screening System over a 24 h time course. Data were processed and analyzed in Harmony and Microsoft Excel and graphed in GraphPad Prism.

[8] = tested on: T24-human nectin4 clone147 cells; assay: In vitro CDC assay with human serum complement; assay type: cell-based; conditions: nectin-4 expressing T24 cell line
Description: T24 cell line was engineered to express high level of human Nectin4 and clonally selected. T24-human nectin4 clone147 cells were added in white clear-bottom 96-well tissue culture plates in assay medium (McCoy's 5A+1× GlutaMax+10% Heat Inactivated Fetal Bovine Serum) and incubated in the incubator at 37° C. with 5% CO2 overnight. Next day, 50 ul/well antibodies were added at final working concentration from 200 nM, 1:3 serially diluted in assay medium and incubated at 37° C. with 5% CO2 for one hour. Diluted human serum complement (1:3) was then added at 50 ul/well in assay medium and incubated at 37° C. with 5% CO2 for 3 hours. Plate was read using CellTiter-Glo Luminescent Cell Viability Assay. 100 ul/well CellTiter-Glo reagent were incubated in plates at room temperature for 10 min. Luminescence was read in the SpectraMax M5e. RLUs (Relative Light Units) were obtained with SoftMax Pro 5.4. Percentage of cell killing was calculated against no treatment. Data was graphed and analyzed using GraphPad Prism version 9.5.1.

[9] = tested on: T24 mScarlet clone 5 Nectin-4 negative cells; assay: Bystander killing of T24-mScarlet clone 5 cells co-cultured with T24-human nectin4 clone108 (imaging); assay type: cell-based; conditions: T24-mScarlet clone5 : T24-human nectin4 clone108 9:1, 5 days, ADC Formula XI DAR 8; read-out: IC50 of bystander effect
Description: T24 cell line was engineered to express mScarlet and clonally selected to test in bystander assay. T24-mScarlet clone5 and T24-human nectin4 clone108 were mixed and seeded at a total of 1000 cells/well/100 ul with a ratio of 9:1 in culture medium (McCoy's 5A+1× GlutaMax+10% Heat Inactivated Fetal Bovine Serum+400 μg/ml G418) in flat clear bottom 96-well plates. T24 mScarlet clone 5 cells were negative for nectin-4 expression. Plates were incubated at 37° C. with 5% CO2 overnight. Next day, ADCs were added at final working concentration from 50 nM, 1:4 serially diluted in culture medium. Plates were covered with Breathe-Easy® sealing membrane, placed in BioSpa and scanned in Cytation5 every day for 5 days.
Images of T24-mScarlet cells were captured and analyzed by Cytation5 with Gen5 Image Prime 3.11. Percentage of T24-mScarlet cell killing was calculated by decreased Integrated Intensity (area×mean intensity), normalized to zero hour and no treatment. Data was graphed and analyzed using GraphPad Prism version 9.5.1. IC50 was determined via log(inhibitor) vs. response-variable slope (four parameters) curve fitting.

NCI-H1781 cells = assay: ADC cytotoxicity (CellTiter-Glo), low nectin-4 expression line; assay type: cell-based; conditions: NCI H1781, 5 days, ADC Formula XI DAR 8
Description: NCI-H1781 cells, a low expression cell line, were seeded in white clear-bottom 96-well tissue culture plates in culture medium (RPMI 1640+1× GlutaMax+10% Heat Inactivated Fetal Bovine Serum+1 mM sodium pyruvate). Cells were incubated at 37° C. with 5% CO2 overnight. Next day, ADCs were added at final working concentration from 100 nM, 1:3 serially diluted in culture medium. Plates were covered with Breathe-Easy® sealing membrane and incubated at 37° C. with 5% CO2. Plates were read after 5 days treatment using CellTiter-Glo Luminescent Cell Viability Assay. 100 ul/well CellTiter-Glo reagent were incubated in plates at room temperature for 10 min. Luminescence was read in the SpectraMax M5e. RLUs (Relative Light Units) were obtained with SoftMax Pro 5.4. Percentage of cell killing was calculated against no treatment as 0%. Data was graphed and analyzed using GraphPad Prism version 9.5.1. IC50 was determined via log(inhibitor) vs. response-variable slope (four parameters) curve fitting.

[10] = tested on: T24-human nectin-4 clone 108; assay: ADC cytotoxicity (CellTiter-Glo), high nectin-4 expression line; assay type: cell-based; conditions: T24 Nectin-4 clone 108, 5 days, ADC Formula XI DAR 8
Description: Plates were read after 5 days treatment using CellTiter-Glo Luminescent Cell Viability Assay. 100 ul/well CellTiter-Glo reagent were incubated in plates at room temperature for 10 min. Luminescence was read in the SpectraMax M5e. RLUs (Relative Light Units) were obtained with SoftMax Pro 5.4. Percentage of cell killing was calculated against no treatment as 0%. Data was graphed and analyzed using GraphPad Prism version 9.5.1. IC50 was determined via log(inhibitor) vs. response-variable slope (four parameters) curve fitting.
T24 cell line was engineered to express human nectin-4 and clonally selected. T24-human nectin-4 clone 108, a high expression clonal cell line, was seeded in culture medium (McCoy's 5A+1× GlutaMax+10% Heat Inactivated Fetal Bovine Serum+400 μg/ml G418). ADCs were added at final working concentration from 200 nM, 1:4 serially diluted in culture medium for 5 days.

Enfortumab vedotin [reference compound]
IC50 ([1]; UMUC3-Luc-GFP + UMUC3-hNectin4 clone F7, ratio 4:1, 5 days, read-out: IC50 of bystander effect): 4.3 nM | Bystander effect (in words) ([1]; UMUC3-hNectin-4 cloneF7/UMUC3-Luciferase-GFP 4:1, 5 days): much less potent bystander effect | Activity against MMAE-resistant cells [2]: lost efficacy | IC50 [3]: 0.35 nM

Enfortumab ADC: benchmark: enfortumab conjugated with Formula XI, and with a DAR of 8 [reference compound]
Mean tumor volume [4]: 812.22 mm^3 | Mean tumor volume (MDA-MB-468 xenograft): 272.28 mm^3

CC[C@H](C)[C@@H]([C@@H](CC(=O)N1CCC[C@H]1[C@H](OC)[C@@H](C)C(=O)N[C@H](C)[C@@H](O)c1ccccc1)OC)N(C)C(=O)[C@@H](NC(=O)[C@@H](NC)C(C)C)C(C)C [MMAE] (H-[NMeV]V[Dil][Dolaproine]-X1)
IC50 [5]: 0.38 nM

Enfortumab
EC50 [6]: 0.03 nM | % activity (max GFP signal loss compared to enfortumab mAb (100%)) [7]: 119.9% | EC50 ([7]; read-out: EC50 of nectin-4-eGFP signal loss): 2.55 nM | CDC potential [8]: did not show CDC potential | IC50 [9]: 0.0593 nM | IC50 (NCI-H1781 cells): 0.0409 nM | IC50 [10]: 0.0747 nM
